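A five-concentration, 48-hour dose response in 96-well plates underlies each endpoint, interpolated linearly between surrounding concentrations. The concentration for 50% growth inhibition is given as GI50. TGI denotes the concentration required for complete inhibition of growth.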
Columns and labels:
Test in all cases: DTP human tumour cell line panel, 48 h
[1] = test system: UACC-62 melanoma
[2] = test system: COLO 205 colon
[3] = test system: CAKI-1 renal
[4] = test system: SN12C renal
[5] = test system: RXF 393 renal
[6] = test system: MALME-3M melanoma
[7] = test system: NCI-H23 lung
[8] = test system: HS 578T breast
[9] = test system: NCI-H522 lung
[10] = test system: A498 renal

SMILES | GI50 [1] [µM] | TGI [1] [µM] | GI50 [2] [µM] | TGI [2] [µM] | GI50 [3] [µM] | TGI [3] [µM] | GI50 [4] [µM] | TGI [4] [µM] | GI50 [5] [µM] | TGI [5] [µM] | GI50 [6] [µM] | TGI [6] [µM] | GI50 [7] [µM] | TGI [7] [µM] | GI50 [8] [µM] | TGI [8] [µM] | GI50 [9] [µM] | TGI [9] [µM] | GI50 [10] [µM] | TGI [10] [µM]
CC(=O)NCc1cccc(C#Cc2cncnc2Nc2ccc(OCc3cccc(F)c3)c(Cl)c2)c1 | 9.87 | > 25 | > 16.7 | > 25 | 2.04 | > 23.7 | 10.6 | > 25 | 13 | > 25 | 19.4 | > 25 | 14.1 | > 25 | > 22.4 | > 25 | 6.55 | > 22.4 | 3.52 | 24.8
Cc1cc(C#Cc2ccc(C(C)(C)C)cc2)ccc1-n1c(/C=C/c2ccc(O)cc2O)nc2ccccc2c1=O | 3.52 | 13.5 | 3.02 | 9.59 | 2.87 | 16.2 | 1.88 | 4.13 | 1.88 | 4.46 | 8.42 | 23.2 | 2.42 | 6.8 | 2.2 | 5.87 | 1.83 | 5.5 | 2.98 | 11.4
COC(=O)c1cncc(/C=C/c2c(C)cc(O)cc2C)c1 | 7.71 | > 25 | > 22.4 | > 25 | > 16.2 | > 25 | 11.2 | > 25 | 5.97 | 16.7 | 11.5 | > 25 | 10.5 | > 25 | 6.91 | > 25 | 5.67 | 17.1 | 11 | > 25
COc1cc(/C=C/C(=O)c2cccc(-n3cc(-c4ccc(Cl)cc4)[nH]c3=O)c2)cc(OC)c1OC | 8.88 | 21.4 | 7.38 | 20.2 | 15.6 | 95.5 | 5.14 | 28.5 | 3.22 | 7.7 | 18.1 | > 100 | 3.56 | 16.9 | 5.96 | > 100 | 4.1 | 21.9 | 30.2 | > 100
CCC1(O)C(=O)OCc2c1cc1n(c2=O)Cc2cc3c(NC(=O)CN)cccc3nc2-1 (stereo not given) | 0.0927 | 0.852 | 5 | 46.6 | 0.205 | 8.37 | 0.102 | 10.1 | 0.515 | 3.91 | 6.94 | 41.1 | 0.27 | 2.58 | 28.9 | > 100 | 0.387 | 9.9 | 0.883 | 5.65
COc1cc2nc(-c3cc(F)ccc3O)nc(N[C@@H]3CNC[C@H]3C(C)(C)O)c2cc1OC | 1.78 | 3.41 | 1.63 | 3.16 | 1 | 2.54 | 1.42 | 3.12 | 1.27 | 2.55 | 1.78 | 3.24 | 1.67 | 3.42 | 1.72 | 5.74 | 1.67 | 3.11 | 1.12 | 2.6
